Laboratory results taken from patent publication US7238527B2, “Methods and compositions for rapid in vitro propagation of Swertia chirata” (priority 2001, dated 2007).

System: Swertia chirata shoots
Assay: Rooting of excised four-week shoots on modified MS with auxins (Example 3)
Format: cell-based
Conditions: for Rooting %: agar 0.8%
Procedure: The effect of various auxins on rooting percent and duration may be studied using four-week shoots obtained in the preceding section.
The excised shoot may be transferred to modified MS basal culture medium with varied concentrations of several auxins selected from a group comprising IAA, IBA, and NAA as shown in Table 3.
In this experiment there are 3 treatments of auxin IAA, IBA and NAA using various levels (1–5 mg/L) supplemented to modified MS media, Supporting system Agar (0.8%).
Four weeks long shoot achieved in experiment 2 were excised and transferred to above referred medium

In the case of indole butyric acid [IBA], the Time to rooting (1.0 to 5.0 mg/L auxin in modified MS basal culture medium) is reported as “about 8 weeks”, the “Rooting (wks)” value (auxin 1 mg/L in modified MS) is reported as 8 wks and the Rooting % (auxin 1 mg/L in modified MS) is reported as 60%. The “Rooting (wks)” value (auxin 2 mg/L in modified MS) was 8 wks, the Rooting % (auxin 2 mg/L in modified MS) was 62% and the “Rooting (wks)” value (auxin 5 mg/L in modified MS) was 8 wks. For the same substance, the Rooting % (auxin 5 mg/L in modified MS) was 60% and the Root morphology (in words) was “white colored, thick, and short”.
